Drawing on patent US9598401B2, “Substituted heteroaryl compounds and methods of use thereof” (Sunshine Lake Pharma Co., Ltd., priority 2013, dated 2017), this text covers Ki and IC50 for five compounds.

Each structure is given as a SMILES string.

In experiment [1] the target is dopamine D2S receptor (Homo sapiens (Human), UniProt P14416). Briefly: Affinity for human dopamine D2S receptor ([3H]methyl-spiperone binding). Particulars: 0.3 nM [3H]methyl-spiperone, cell membrane homogenates, 22° C., 60 minutes.
Description: Cell membrane homogenates (24 μg protein) were incubated at 22° C. for 60 minutes with 0.3 nM [3H]methyl-spiperone in the absence or presence of the test compound in a buffer solution containing 50 mM Tris-HCl (pH 7.4), 120 mM NaCl, 5 mM KCl, 5 mM MgCl2 and 1 mM EDTA.
The non-specific binding value was determined by incubating the same mixture in the presence of 10 μM (+)butaclamol.
Following the incubation, the samples were filtered rapidly under vacuum through glass fiber filter (GF/B, Packard) presoaked with 0.3% PEI and rinsed several times with ice-cold 50 mM Tris-HCl using a 96-sample cell harvester (Unifilter, Packard). The filters were dried and the retained radioactivity was measured in a scintillation counter (Topcount, Packard) using a scintillation cocktail (Microscint 0, Packard).
The experimental results were expressed as a percent inhibition of the control radioligand specific binding, and Ki was the inhibition constant. The standard reference compound was (+)butaclamol, which was tested in each experiment at several concentrations to obtain a competition curve from which its IC50 was calculated, and then Ki value was calculated by ChengPrusoff equation.
Experiment [2] concerns the target 5-HT1A receptor (Homo sapiens (Human), UniProt P08908). Briefly: Affinity for human 5-HT1A receptor ([3H]8-OH-DPAT binding, HEK-293 cell homogenates).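 Note: Filter-retained radioactivity counted by scintillation, non-specific binding defined with 10 µM 8-OH-DPAT, Ki derived from percent inhibition of specific radioligand binding versus control.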 Particulars: read-out: Ki, binding affinity for 5-HT1A receptor; 0.3 nM [3H]8-OH-DPAT, human HEK-293 cell homogenates, 22° C., 60 minutes.
Description: The non-specific binding value was determined by incubating the same mixture in the presence of 10 μM 8-OH-DPAT, which was used as the standard reference compound and tested in each experiment at several concentrations to obtain a competition curve.
Following the incubation, the samples were filtered rapidly under vacuum through glass fiber filter (GF/B, Packard) presoaked with 0.3% PEI and rinsed several times with ice-cold 50 mM Tris-HCl using a 96-sample cell harvester (Unifilter, Packard). The filters were dried and the retained radioactivity was measured in a scintillation counter (Topcount, Packard) using a scintillation cocktail (Microscint 0, Packard). The experimental results were expressed as a percent inhibition of the control radioligand specific binding, and Ki was the inhibition constant.
In experiment [3] the target is serotonin transporter (Rattus norvegicus (Rat), UniProt P31652). Nature of the experiment: Inhibitory effect on [3H]5-HT uptake in rat synaptosome. Particulars: rat brain synaptosomes, 37° C., 15 minutes, 0.1 μCi [3H]5-HT. Format: biochemical. The protocol: The synaptosomes (150 μg) prepared from the rat brain were incubated at 37° C. for 15 minutes with 0.1 μCi [^3H]5-HT in the absence or presence of the test compound or the reference compound in a buffer solution containing 106.2 mM NaCl, 4.5 mM KCl, 2.25 mM MgSO4, 1.08 mM NaH2PO4, 22.5 mM NaHCO3, 9.9 mM glucose, 9 μM EGTA and 45 μM ascorbic acid (pH 7.4).
Inhibition of serotonin transporter in rat synaptosome was measured by the concentrations of [^3H]5-HT.

dopamine D2S receptor, sequence (P14416 other isoform, or with tags, fused parts or gaps): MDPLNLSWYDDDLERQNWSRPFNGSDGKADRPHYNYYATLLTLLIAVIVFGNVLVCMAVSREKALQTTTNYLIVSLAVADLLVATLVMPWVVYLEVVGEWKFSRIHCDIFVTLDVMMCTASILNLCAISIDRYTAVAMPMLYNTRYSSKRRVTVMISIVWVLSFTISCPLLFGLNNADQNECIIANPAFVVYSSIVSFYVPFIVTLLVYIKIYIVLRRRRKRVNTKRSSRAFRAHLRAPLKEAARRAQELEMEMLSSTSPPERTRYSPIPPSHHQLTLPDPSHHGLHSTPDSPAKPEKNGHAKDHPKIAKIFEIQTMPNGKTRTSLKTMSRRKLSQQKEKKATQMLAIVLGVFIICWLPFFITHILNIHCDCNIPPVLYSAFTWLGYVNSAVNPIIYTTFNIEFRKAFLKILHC
serotonin transporter, sequence (P31652 whole entry): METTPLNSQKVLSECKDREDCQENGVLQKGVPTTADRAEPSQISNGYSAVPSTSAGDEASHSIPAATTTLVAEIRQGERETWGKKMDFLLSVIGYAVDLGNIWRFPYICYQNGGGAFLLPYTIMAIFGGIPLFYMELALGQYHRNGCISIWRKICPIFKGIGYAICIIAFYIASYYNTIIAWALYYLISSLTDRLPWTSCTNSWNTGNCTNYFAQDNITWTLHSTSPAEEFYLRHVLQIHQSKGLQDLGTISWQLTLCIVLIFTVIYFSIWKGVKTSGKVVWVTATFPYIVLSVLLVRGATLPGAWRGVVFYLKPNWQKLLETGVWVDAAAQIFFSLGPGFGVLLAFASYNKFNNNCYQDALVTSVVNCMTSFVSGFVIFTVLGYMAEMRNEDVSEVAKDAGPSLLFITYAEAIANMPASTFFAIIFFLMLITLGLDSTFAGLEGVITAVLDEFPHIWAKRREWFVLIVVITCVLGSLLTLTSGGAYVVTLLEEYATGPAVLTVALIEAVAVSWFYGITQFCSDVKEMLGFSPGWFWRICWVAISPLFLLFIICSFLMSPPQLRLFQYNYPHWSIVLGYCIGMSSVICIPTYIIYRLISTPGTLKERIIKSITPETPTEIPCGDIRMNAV
5-HT1A receptor, sequence (P08908 whole entry): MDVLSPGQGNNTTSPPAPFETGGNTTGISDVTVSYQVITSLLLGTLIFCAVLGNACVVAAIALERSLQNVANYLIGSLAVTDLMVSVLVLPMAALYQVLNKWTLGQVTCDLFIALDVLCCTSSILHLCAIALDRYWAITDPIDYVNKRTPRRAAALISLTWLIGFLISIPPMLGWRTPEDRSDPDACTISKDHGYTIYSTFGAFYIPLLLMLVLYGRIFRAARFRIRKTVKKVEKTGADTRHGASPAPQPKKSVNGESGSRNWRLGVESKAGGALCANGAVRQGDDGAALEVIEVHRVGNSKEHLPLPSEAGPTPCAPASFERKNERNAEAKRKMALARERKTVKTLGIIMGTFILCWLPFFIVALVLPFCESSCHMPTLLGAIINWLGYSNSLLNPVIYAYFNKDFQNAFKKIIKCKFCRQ

`Cc1nc(N2CCN(CCCc3c[nH]c4ccc(F)cc34)CC2)sc1C(N)=O` [Example 42, 2-(4-(3-(5-Fluoro-1H-indol-3-yl)propyl)piperazin-1-yl)-4-methylthiazole-5-carboxamide]: the inhibition constant (Ki) came to 310 nM in experiment [1] and 4.5 nM in experiment [2]. The compound further came in with an IC50 in experiment [3] of 5.3 nM.
For `Cc1nc(N2CCN(CCCc3c[nH]c4ccc(C#N)cc34)CC2)sc1C(N)=O` [Example 44, 2-(4-(3-(5-Cyano-1H-indol-3-yl)propyl)piperazin-1-yl)-4-methylthiazole-5-carboxamide], the Ki in experiment [1] was more than 1000 nM; in experiment [2], 3.7 nM. In experiment [3], this compound had an IC50 of 4.3 nM.
In the same order, the values of `Cc1nc(N2CCN(CCCCc3c[nH]c4ccc(F)cc34)CC2)sc1C#N` [Example 45, 2-(4-(4-(5-Fluoro-1H-indol-3-yl)butyl)piperazin-1-yl)-4-methylthiazole-5-carbonitrile] are more than 1000 nM, 14 nM and 8.3 nM.
With `Cc1nc(N2CCN(CCCc3c[nH]c4ccc(F)cc34)CC2)sc1C#N` [Example 46, 2-(4-(3-(5-Fluoro-1H-indol-3-yl)propyl)piperazin-1-yl)-4-methylthiazole-5-carbonitrile], the Ki was more than 1000 nM in experiment [1] and 4.2 nM in experiment [2]. This compound also displayed an IC50 in experiment [3] of 18 nM.
In the same order, the values of `Cc1nc(N2CCN(CCCCc3c[nH]c4ccc(C#N)cc34)CC2)sc1C#N` [Example 47, 2-(4-(4-(5-Cyano-1H-indol-3-yl)butyl)piperazin-1-yl)-4-methylthiazole-5-carbonitrile] are 130 nM, 5 nM and 1.5 nM.
